Experimental data reported in patent publication US10780094B2, “Use of carbonic anhydrase inhibitors for treatment of neurological and psychiatric disorders” (New York University, priority 2016, dated 2020).

Columns and labels:
[1] = tested on: caspase 9 in SH-SY5Y neuronal cells; assay: Caspase-Glo 9 activity after Aβ challenge; type: cell-based, human; details: 10 μM Aβ42; 24 hours; no drug
Method: (§1) Caspase 9 and caspase 3/7 activation was measured by luminescent assays (Caspase-Glo 9 and caspase-Glo 3/7, Promega, Madison, Wis.), in cells treated with the Aβ peptides in DMEM without FBS. Briefly, 10,000 cells/well were plated in 96 wells plates and incubated for 24 hours with the freshly solubilized Aβ peptides. Caspase-Glo reagent was added to the cell cultures resulting in cell lysis, followed by caspase cleavage of the substrate and generation of a luminescent signal produced by the luciferase reaction. After 40 minutes incubation, the amount of caspase activity was evaluated in a plate-reading luminometer (Synergy HT Multi-Mode Microplate Reader, Biotek, Winooski, Vt.) as described in (Fossati et al., 2012b). To inhibit non-specific background activity, the proteasome inhibitor MG-132 was added to the Caspase-Glo reagent before the experiment as indicated by the manufacturer. In all cases results are expressed as fold-change compared to untreated control cells.
Cells were plated at a confluence of 10.000 cells per well in 96-wells microplate luminescence microtiter (ThermoFisher, Waltham, Mass., US). The day after, cells were treated with the peptides and/or drugs for the experimental times. After that, caspase-Glo 9 assay was performed, following the protocol provided from the manufacturer. Luminescence was measured using a FlexStation 3 Multi-Mode Microplate Reader (Molecular devices, Sunnyvalem Calif., US).

[2] = tested on: caspase 9 in glial cells; assay: Caspase-Glo 9 activity after Aβ challenge; type: cell-based, human; details: 10 μM Aβ42; 24 hours; no drug
Method: as §1

[3] = tested on: D3 cells; assay: Mitochondrial and cytoplasmic calcium assay (Rhod-2 AM, Fluo-4 AM); type: cell-based, human; details: Ionomycin 5 μM at the end of the experiments
Method: (§2) This assay was performed as published in [60]. Briefly, cells were plated on 25 mm optical borosilicate poly-L-lysine-coated sterile glass covers, (ThermoFisher, Waltham, Mass., US) at a 70% confluence. 24 hours later, cells were loaded with 5 μM Rhod-2 AM or 2.5 μM Fluo-4 AM on HBSS for 45 minutes. Then, cells were washed twice with HBSS and incubated for another additional 15 minutes on fresh HBSS, without Rhod-2 AM or Fluo-4 AM. After that, HBSS was replaced again by fresh HBSS, glasses were mounted on microscopy chambers and experiments were conducted, after adding the pre-aggregated peptides and/or the drugs. Cells were mounted on Sykes-Moores chambers (BellCo, Vineland, N.J., US) and imaged every 15 seconds for 45 min, at a 20× magnification, using a Nikon fluorescent microscope (Chiyoda, Tokyo, Japan). Images were processed using NIS-Elements and ImageJ software. Due to the rapidity of this experiment, the peptide was pre-aggregated as described above to obtain oligomers before being added to the cells.

[4] = tested on: SH-SY5Y cells; assay: as above; type: cell-based, human; details: Ionomycin 5 μM at the end of the experiments
Method: as §2

[5] = tested on: D3 cells; assay: ATP measurement (CellTiter-Glo); type: cell-based, human
Method: (§3) Steady state levels of ATP were estimated using the Cell Titter-Glo, according to manufacturer's instructions. Briefly, 5×10^3 cells per well of both D3 and SHSY cells were plated on 96-wells plates. The day after, cells were treated with either 10 μM Q22 or 50 μM Ab42 peptides, respectively. Peptides were added alone or in combination with increasing concentrations of MTZ (100 and 300 μM) or AZT (30 and 300 μM). Controls were treated with either DMSO or 5 μM oligomycin. After 3 hours of treatment, the plates containing the cells were equilibrated to room temperature for 30 minutes prior to addition of the luciferin/luciferase/cell lysis mixture. Absolute luminescence from quadruplicate experiments was recorded using a SpectraMax plate reader (Molecular Devices, Sunnyvalem Calif., US).

[6] = tested on: mitochondrial CA; details: reference (16); cited from earlier work
[7] = references (44, 45); cited from earlier work
[8] = tested on: SH-SY5Y cells; assay: ATP measurement (CellTiter-Glo); type: cell-based, human; details: oligomycin 5 μM control; p<0.0001
Method: as §3

[9] = tested on: D3 cerebral microvascular endothelial cells; assay: TMRM assay of mitochondrial membrane potential (ΔΨ); type: cell-based, human; details: 40 μM FCCP
Method: (§4) Briefly, cells were plated on 25 mm optical borosilicate poly-L-lysine-coated sterile glass covers (ThermoFisher, Waltham, Mass., US) at a 70% confluence. The day after, cells were washed twice with HBSS and charged with 600 nM TMRM on HBSS. Cells were then incubated for 20 min in the incubator, at 37° C. and washed again with HBSS. After that, the medium was replaced by HBSS containing 150 nM of tetramethylrhodamine methyl ester (TMRM), in order to maintain the equilibrium distribution of the fluorophore. Cells were then mounted on Sykes-Moores chambers (BellCo, Vineland, N.J., US) and treated with the different drugs and/or peptides. An image was taken at minute 0 and at minute 45, after adding the drugs and/or peptides. In this experiment, the peptide was pre-aggregated as above before adding it to the cells.

[10] = tested on: SH-SY5Y neuronal cells; assay: as above; type: cell-based, human; details: 40 μM FCCP
Method: as §4

Aβ42: Synthetic homologue of the amyloid subunit Aβ42, used to challenge cells
caspase 9 activation increase compared to control cells [1]: about 1.5 times
caspase 9 activation increase compared to control cells [2]: about 1.5 times

C[C@H](CCC(=O)O)C[C@H](C)C[C@H](C)C(=O)/C=C(\O)[C@H](C)C[C@H](C)C/C=C/[C@@H](C)[C@@H](O)[C@@H](C)[C@@H](O)C[C@@H]1CC[C@@](C)([C@H]2CC[C@@](C)([C@@H](C)O)O2)O1 [Ionomycin]
mitochondrial and cytoplasmic calcium levels [3]: increase in mitochondrial and cytoplasmic calcium levels
mitochondrial and cytoplasmic calcium levels [4]: increase in mitochondrial and cytoplasmic calcium levels

Aβ40-Q22: Synthetic Aβ40, the Dutch genetic variant, containing the E22Q substitution
increase in steady state ATP levels ([5]; peptide alone, p=0.001): 21.6%

CCOc1ccc2nc(S(N)(=O)=O)sc2c1 [ETZ, ethoxzolamide]
activity on mitochondrial CA [6]: high activity
ROS formation and cell death induced by high glucose [7]: inhibit ROS formation and cell death

CC[C@H]1/C=C/C=C/C[C@@H](C)[C@H](O)[C@@](C)(O)C(=O)[C@@H](C)[C@H](O)[C@@H](C)C(=O)[C@@H](C)[C@H](O)[C@@H](C)/C=C/C(=O)O[C@@H]2[C@H](C)[C@H](CC1)O[C@]1(CC[C@H](C)[C@H](C[C@@H](C)O)O1)[C@H]2C [oligomycin]
increase in ATP luminescence ([5]; oligomycin 5 μM, p=0.0002): 32.4%
decrease in ATP levels [8]: 34%

N#CC(C#N)=NNc1ccc(OC(F)(F)F)cc1 [FCCP, p-trifluoromethoxyphenylhydrazone]
mitochondrial depolarization after treatment with drugs and peptides [9]: further depolarized
mitochondrial depolarization after treatment with drugs and peptides [10]: further depolarized
